# According to patent publication US11034702B2, “Thienoisoquinolines and their derivatives for the treatment of cancer” (VALORBEC, SOCIÉTÉ EN COMMANDITE, priority 2016, dated 2021):
# Legend:
# [1] = tested on: BT549 (breast ductal carcinoma) cells; test: IC50 (viability) in BT549 cells; assay type: cell-based; conditions: Homo sapiens, BT-549
# Protocol: 19 variants with different structural modifications have been made. […] In particular, it is shown that C75 causes death in multiple cancer cells with IC50 values in the 100 nM range, including breast cancers (MCF7, BT549), lung cancer (A549), colorectal cancer (HCT116) in addition to HeLa cells (cervical cancer).
# [2] = tested on: H1299 (non-small cell lung cancer) cells; test: Mitotic arrest (percentage of cells in mitosis) in H1299 cells; assay type: cell-based, human; conditions: H1299, least responsive line
# Protocol: FIG. 2A) is a line graph showing the percentage of HCT116 (p53−/−) cells, A549 cells, HeLa cells and H1299 cells in mitosis after treatment with various concentrations of C75 for one population doubling time. All of the cell lines show an increase in the proportion of mitotic cells after treatment with 200 nM C75. The bars indicate standard deviation. […] While the mitotic spindles were not dramatically altered by C75 in HFF1 cells, they were monopolar (as shown) or fragmented in the other cell types. […] The mitotic spindles were more strongly fragmented after C75 treatment in these cells vs. the cells in FIG. 2B). […] While mitotic spindles recovered bipolarity after removing nocodazole, they remained multipolar after removing C75. FIG. 2F) is a series of time-lapse images of a live HeLa cell expressing GFP:tubulin after treatment with C75 as shown in 2D) and 2E). The scale bar for all cells is 10 μm. FIG. 2G) is a schematic showing the putative target for C75. […]
# C75 was also tested for efficacy in different cancer cell lines. […] To further assess the role of C75 in affecting centrosomes, HeLa cells were treated with C75 for a short period of time (5 minutes), then C75 was removed and the cells were analyzed for spindle phenotypes (schematic in FIG. 2D). […]
# HCT116 spheroids = test: HCT116 multicellular tumour spheroids; assay type: cell-based
# Protocol: FIG. 5A) is a series of images of HeLa multicellular tumor spheroids (spheroids) treated with control (500 nM C87), empty nanoparticles, 500 nM C75 and 250 nM C75-loaded nanoparticles over 3 days. […] The scale bar for all images is 100 μm. FIG. 5B) is a series images of HeLa spheroids after three days of treatment with control (500 nM C87) or 500 nM C75. The spheroids were stained for fluorescein diacetate (to detect live cells) and propidium iodide (to detect dead cells). […] The scale bar for all images is 100 μm. FIG. 5C) is a series of images of HCT116 spheroids treated with control (1 μM C87), 500 nM C75, 1 μM C75 and 500 nM C75-loaded nanoparticles over 5 days. […] The borders of the spheroids treated with 1 μM C75 or with 500 nM C75-loaded nanoparticles became highly irregular, indicative of loss of spheroid integrity. FIG. 5D) is a series images of HCT116 spheroids after six days of treatment with control (1 μM C87) or 1 μM C75. The spheroids were stained for fluorescein diacetate (live cells) and propidium iodide (dead cells). […] FIG. 5E) is a line graph showing the growth in surface area (%) of HCT116 spheroids treated with control (1 μM C87), 500 nM C75 and 1 μM C75 after six days. FIG. 5F) is a series of images of A549 spheroids treated with control (750 nM C87), 500 nM C75, 1 μM C75 and 500 nM C75-loaded nanoparticles over 5 days. […] The scale bar for all images is 100 μm. […]
smiles,measurement,setting,value
COc1ccc(S(=O)(=O)N2Cc3ccccc3-c3sc(Br)cc32)cc1 [Compound C75],IC50,[1],158 nM
same,concentration at which mitotic cells increase,[2],200 nM
same,effect on growth of HCT116 spheroids,"HCT116 spheroids; 500 nM or 1 μM C75, 500 nM C75-loaded nanoparticles, over 5 days",regress the growth
same,live/dead staining of spheroids (fluorescein diacetate / propidium iodide),"HCT116 spheroids; HCT116 spheroids, 1 μM, six days","much smaller after C75-treatment, but still contained live cells"
